{"source": "patent US11395824B2", "about": "“5-HT2C receptor agonists and compositions and methods of use” (Arena Pharmaceuticals, Inc., priority 2015, dated 2022)", "key": {"[1]": {"details": "reports that led to withdrawal by the FDA in 1998; cited from earlier work"}, "[2]": {"target": "T1, 5-HT2B receptor (Homo sapiens, UniProt P41595)", "T1 sequence (P41595 whole entry)": "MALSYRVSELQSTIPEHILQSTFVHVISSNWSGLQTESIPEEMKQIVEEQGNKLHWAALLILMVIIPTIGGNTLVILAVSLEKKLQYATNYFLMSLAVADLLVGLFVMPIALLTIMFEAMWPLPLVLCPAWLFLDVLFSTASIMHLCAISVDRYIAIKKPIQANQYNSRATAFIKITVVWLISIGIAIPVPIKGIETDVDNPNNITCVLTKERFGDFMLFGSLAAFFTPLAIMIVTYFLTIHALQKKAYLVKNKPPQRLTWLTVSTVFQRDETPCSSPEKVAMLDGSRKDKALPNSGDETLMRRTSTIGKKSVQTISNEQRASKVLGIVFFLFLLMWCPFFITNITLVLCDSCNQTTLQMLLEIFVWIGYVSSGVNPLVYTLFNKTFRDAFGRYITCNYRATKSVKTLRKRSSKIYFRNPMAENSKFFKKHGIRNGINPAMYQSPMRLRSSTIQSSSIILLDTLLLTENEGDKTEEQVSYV", "assay": "Radioligand binding assay with [125I]DOI", "details": "competition with [125I]DOI, read-out: DOI Binding Ki (nM) 2B"}, "[3]": {"target": "T2, 5-HT2C receptor (Homo sapiens, UniProt P28335)", "T2 construct": "expressed in transfected cells; host or cells: HEK293", "T2 sequence (P28335 33-458)": "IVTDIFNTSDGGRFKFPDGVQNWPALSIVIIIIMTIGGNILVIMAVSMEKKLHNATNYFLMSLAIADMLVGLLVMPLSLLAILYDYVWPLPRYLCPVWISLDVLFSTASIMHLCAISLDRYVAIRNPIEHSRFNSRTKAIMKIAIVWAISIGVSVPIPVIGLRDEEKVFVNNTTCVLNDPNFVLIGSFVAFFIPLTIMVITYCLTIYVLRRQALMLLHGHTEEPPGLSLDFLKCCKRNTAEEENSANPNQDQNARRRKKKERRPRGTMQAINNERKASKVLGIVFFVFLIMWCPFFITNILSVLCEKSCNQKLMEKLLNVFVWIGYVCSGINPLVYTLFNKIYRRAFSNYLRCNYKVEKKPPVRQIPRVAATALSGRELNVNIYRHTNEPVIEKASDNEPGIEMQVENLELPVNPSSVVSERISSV", "assay": "Radioligand binding assay with [125I]DOI", "details": "competition with [125I]DOI, membranes of HEK293 cells expressing recombinant 5-HT2C receptors; read-out: DOI Binding Ki (nM) 2C", "method": "For the compounds of Table A, the following procedure was used. HEK293 cells stably expressing recombinant 5-HT2C receptors were harvested, suspended in ice-cold phosphate buffered saline, pH 7.4 (PBS), and then centrifuged at 48,000 g for 20 min at 4° C. The resulting cell pellet was then re-suspended in wash buffer containing 20 mM HEPES, pH 7.4 and 0.1 mM EDTA, homogenized on ice using a Brinkman Polytron, and centrifuged (48,000 g for 20 min at 4° C.). The pellet was then resuspended in 20 mM HEPES, pH 7.4, homogenized on ice, and centrifuged (48,000 g for 20 min at 4° C.). Crude membrane pellets were stored at −80° C. until used for radioligand binding assays.\nFor the compounds of Table A, the following procedure was used. […] Experiments comprised addition of 95 μL of assay buffer (20 mM HEPES, pH 7.4, 10 mM MgCl2), 50 μL of membranes, 50 μL of radioligand stock, and 5 μL of test compound diluted in assay buffer to 96-well microtiter plates, which were then incubated for 1 h at room temperature. Assay incubations were terminated by rapid filtration through PerkinElmer F/C filtration plates under reduced pressure using a 96-well Packard filtration apparatus, followed by washing three times with ice cold assay buffer. Plates were then dried at 45° C. for a minimum of 2 h. Finally, 25 μL of BetaScint™ scintillation cocktail was added to each well and the plates were counted in a Packard TopCount® scintillation counter. In each competition study, test compounds were dosed at ten concentrations with triplicate determinations at each test concentration."}, "[4]": {"target": "T3, 5-HT2A receptor (Homo sapiens, UniProt P28223)", "T3 sequence (P28223 whole entry)": "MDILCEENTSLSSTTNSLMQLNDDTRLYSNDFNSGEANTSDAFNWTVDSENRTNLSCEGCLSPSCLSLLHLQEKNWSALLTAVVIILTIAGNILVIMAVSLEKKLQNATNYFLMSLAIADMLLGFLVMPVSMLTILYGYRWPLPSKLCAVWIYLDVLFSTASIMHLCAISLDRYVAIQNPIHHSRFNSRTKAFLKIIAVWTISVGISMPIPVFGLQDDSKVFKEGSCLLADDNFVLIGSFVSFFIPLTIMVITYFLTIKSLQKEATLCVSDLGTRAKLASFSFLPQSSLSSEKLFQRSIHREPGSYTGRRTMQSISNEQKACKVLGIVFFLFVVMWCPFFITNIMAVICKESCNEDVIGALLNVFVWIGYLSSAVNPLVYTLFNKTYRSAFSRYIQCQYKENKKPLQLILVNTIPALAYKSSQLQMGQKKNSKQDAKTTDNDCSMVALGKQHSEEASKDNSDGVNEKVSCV", "assay": "Radioligand binding assay with [125I]DOI", "details": "competition with [125I]DOI, read-out: DOI Binding Ki (nM) 2A"}, "[5]": {"details": "patients without diabetes, cited from earlier work"}, "[6]": {"details": "10 mg BID, patients with type 2 diabetes, cited from earlier work"}, "[7]": {"details": "cited from earlier work"}, "[8]": {"details": "cited from earlier work", "remark": "listed apart in the source"}, "[9]": {"target": "T2, 5-HT2C receptor", "assay": "IP accumulation assay", "type": "cell-based", "details": "HEK293 cells expressing recombinant 5-HT2C receptors, [3H]inositol phosphates, 2 h at 37° C.", "method": "HEK293 cells expressing recombinant 5-HT2C receptors were added to sterile poly-D-lysine-coated 96-well microtiter plates (35,000 cells/well) and labeled with 0.6 µCi/well of [^3H]inositol in myoinositol-free DMEM for 18 h. Unincorporated [^3H]inositol was removed by aspiration and replaced with fresh myoinositol-free DMEM supplemented with LiCl (10 mM final) and pargyline (10 μM final). Serially diluted test compounds were then added and incubation was conducted for 2 h at 37° C. Incubations were then terminated by lysing cells with the addition of ice-cold 0.1 M formic acid followed by freezing at −80° C. After thawing, total [^3H]inositol phosphates were resolved from [^3H]inositol using AG1-X8 ion exchange resin (Bio-Rad) and [^3H]inositol phosphates were measured by scintillation counting using a Perkin Elmer TopCount® scintillation counter. All EC50 determinations were performed using 10 different concentrations and triplicate determinations were made at each test concentration."}, "[10]": {"target": "T1, 5-HT2B receptor", "assay": "IP accumulation assay", "type": "cell-based", "details": "[3H]inositol phosphates, read-out: IP Accumulation EC50 (nM) 2B"}, "[11]": {"target": "T3, 5-HT2A receptor", "assay": "IP accumulation assay", "type": "cell-based", "details": "[3H]inositol phosphates, read-out: IP Accumulation EC50 (nM) 2A"}, "[12]": {"details": "patients with type 2 diabetes, BELVIQ BID"}, "[13]": {"details": "patients without type 2 diabetes"}, "[14]": {"details": "pivotal phase 3 program, treated for up to two years"}}, "note": "Where two headings read alike, the source gives them in different places.", "data": [{"molecule": "CCN[C@@H](C)Cc1cccc(C(F)(F)F)c1", "note": "[d-fenfluramine]", "values": [{"measurement": "share of patients with reported cardiac valve defects", "setting": "[1]", "value": "up to one third"}]}, {"molecule": "Brc1ccc2c3c1CCCC3CCNC2", "note": "(stereo not shown) [Compound 106, 8-bromo-1,2,3,4,4a,5,6,7-octahydronaphtho[1,8-cd]azepine]", "values": [{"measurement": "Ki", "setting": "[2]", "value": 125, "unit": "nM"}, {"measurement": "Ki", "setting": "[3]", "value": 105, "unit": "nM"}, {"measurement": "Ki", "setting": "[4]", "value": 244, "unit": "nM"}]}, {"molecule": "C[C@H]1CNCCc2ccc(Cl)cc21", "note": "[lorcaserin, (R)-8-chloro-1-methyl-2,3,4,5-tetrahydro-1H-3-benzazepine]", "values": [{"measurement": "change of insulin resistance (HOMA-IR)", "setting": "[5]; one study, placebo −0.2", "value": "−0.4"}, {"measurement": "change of fasting insulin", "setting": "[5]; one study, placebo −1.3 μIU/mL", "value": "−3.3", "unit": "μIU/mL"}, {"measurement": "change of mean fasting glucose", "setting": "[5]; placebo +0.6 mg/dL", "value": -0.2, "unit": "mg/dL"}, {"measurement": "reduction in HbA1c", "setting": "[6]; placebo 0.4%", "value": 0.9, "unit": "%"}, {"measurement": "reduction in fasting glucose", "setting": "[6]; placebo 11.9%", "value": 27.4, "unit": "%"}, {"measurement": "patients who decreased the total daily dose of medications used for treatment of dyslipidemia", "setting": "[7]; [12]", "value": 5.5, "unit": "%"}, {"measurement": "patients who increased use of medications used for treatment of dyslipidemia", "setting": "[7]; [12]", "value": 3.1, "unit": "%"}, {"measurement": "decrease of mean daily doses of sulfonylureas and thiazolidinediones", "setting": "[7]; patients with type 2 diabetes, BELVIQ groups", "value": "16-24%"}, {"measurement": "patients who decreased total daily dose of antihypertensive medications", "setting": "[7]; patients with type 2 diabetes", "value": 8.2, "unit": "%"}, {"measurement": "patients who increased total daily dose of antihypertensive medications", "setting": "[7]; patients with type 2 diabetes", "value": 6.6, "unit": "%"}, {"measurement": "patients who decreased the total daily dose of medications used for treatment of dyslipidemia", "setting": "[7]; [13]", "value": 1.3, "unit": "%"}, {"measurement": "patients who decreased total daily dose of antihypertensive medications", "setting": "[7]; [13]", "value": 2.2, "unit": "%"}, {"measurement": "patients who increased total daily dose of antihypertensive medications", "setting": "[7]; [13]", "value": 2.2, "unit": "%"}, {"measurement": "patients who increased use of medications used for treatment of dyslipidemia", "setting": "[7]; [13]", "value": 2.6, "unit": "%"}, {"measurement": "share of excess body weight lost", "setting": "[8]; first phase 3 trial, based on a normal BMI of 25", "value": "about one-third"}, {"measurement": "risk of cardiac valvulopathy", "setting": "[8]; phase 3 program", "value": "did not increase the risk of cardiac valvulopathy"}, {"measurement": "proportion of patients that achieved at least 5% weight loss", "setting": "[8]; [14]", "value": "About two-thirds"}, {"measurement": "proportion of patients that achieved at least 10% weight loss", "setting": "[8]; [14]", "value": "over one-third"}, {"measurement": "average weight lost as share of their weight", "setting": "[8]; pivotal phase 3 program", "value": "about 8%"}, {"measurement": "average weight loss, top quartile of patients", "setting": "[8]; second phase 3 trial", "value": 35, "unit": "pounds"}, {"measurement": "average weight loss, top quartile of patients, of body weight", "setting": "[8]; second phase 3 trial", "value": 16, "unit": "%"}]}, {"molecule": "c1cc2c3c(c1)C1(CCC1)CCC3CCNC2", "note": "(stereo not shown) [Compound 131, 2′,3′,4′,4a′,5′,6′-hexahydro-1′H-spiro[cyclobutane-1,7′-naphtho[1,8-cd]azepine]]", "values": [{"measurement": "EC50", "setting": "[9]", "value": 83.5, "unit": "nM"}, {"measurement": "EC50", "setting": "[10]", "value": "> 100000", "unit": "nM"}, {"measurement": "EC50", "setting": "[11]", "value": "> 100000", "unit": "nM"}]}, {"molecule": "CC1(C)c2cccc3c2C(CCNC3)CC12CC2", "note": "(stereo not shown) [Compound 121, 7,7′-dimethyl-2′,3′,4′,4a′,5′,7′-hexahydro-1′H-spiro[cyclopropane-1,6′-naphtho[1,8-cd]azepine]]", "values": [{"measurement": "EC50", "setting": "[9]", "value": 222, "unit": "nM"}, {"measurement": "Ki", "setting": "[2]", "value": 634, "unit": "nM"}, {"measurement": "EC50", "setting": "[10]", "value": "> 100000", "unit": "nM"}, {"measurement": "EC50", "setting": "[11]", "value": "> 100000", "unit": "nM"}, {"measurement": "Ki", "setting": "[3]", "value": 27.6, "unit": "nM"}, {"measurement": "Ki", "setting": "[4]", "value": 423, "unit": "nM"}]}, {"molecule": "CC1(C)CC2CCNCc3ccc(F)c(c32)C12CC2", "note": "(stereo not shown) [Compound 119, 8′-fluoro-6′,6′-dimethyl-2′,3′,4′,4a′,5′,6′-hexahydro-1′H-spiro[cyclopropane-1,7′-naphtho[1,8-cd]azepine]]", "values": [{"measurement": "EC50", "setting": "[9]", "value": 391, "unit": "nM"}, {"measurement": "EC50", "setting": "[10]", "value": "> 100000", "unit": "nM"}, {"measurement": "EC50", "setting": "[11]", "value": "> 100000", "unit": "nM"}]}, {"molecule": "CC1(C)CC2CCNCc3cccc(c32)C12CC2", "note": "(stereo not shown) [Compound 102, 6′,6′-dimethyl-2′,3′,4′,4a′,5′,6-hexahydro-1′H-spiro[cyclopropane-1,7′-naphtho[1,8-cd]azepine]]", "values": [{"measurement": "Ki", "setting": "[2]", "value": 255, "unit": "nM"}, {"measurement": "Ki", "setting": "[3]", "value": 10.3, "unit": "nM"}, {"measurement": "Ki", "setting": "[4]", "value": 236, "unit": "nM"}]}, {"molecule": "c1cc2c3c(c1)C1(CCC3CCNC2)CC1", "note": "(stereo not shown) [Compound 128, 2′,3′,4′,4a′,5′,6′-hexahydro-1′H-spiro[cyclopropane-1,7′-naphtho[1,8-cd]azepine]]", "values": [{"measurement": "EC50", "setting": "[9]", "value": 108, "unit": "nM"}, {"measurement": "EC50", "setting": "[10]", "value": 284, "unit": "nM"}, {"measurement": "EC50", "setting": "[11]", "value": "> 100000", "unit": "nM"}]}, {"molecule": "CCc1ccc2c3c1C1(CC1)C1(CC1)CC3CCNC2", "note": "(stereo not shown) [Compound 101, 8′-ethyl-2′,3′,4′,4a′,5′-pentahydro-1′H-dispiro[cyclopropane-1,6′-cyclopropane-7′,1″- naphtho[1,8-cd]azepine]]", "values": [{"measurement": "EC50", "setting": "[9]", "value": 2040, "unit": "nM"}, {"measurement": "EC50", "setting": "[10]", "value": "> 100000", "unit": "nM"}, {"measurement": "EC50", "setting": "[11]", "value": "> 100000", "unit": "nM"}]}, {"molecule": "c1cc2c3c(c1)C1(CC1)C1(CC1)CC3CCNC2", "note": "(stereo not shown) [Compound 130, 2′,3′,4′,4a′,5′-pentahydro-1′H-dispiro[cyclopropane-1,6′-cyclopropane-7′,1″- naphtho[1,8-cd]azepine]]", "values": [{"measurement": "EC50", "setting": "[9]", "value": 5.21, "unit": "nM"}, {"measurement": "Ki", "setting": "[2]", "value": 75.7, "unit": "nM"}, {"measurement": "EC50", "setting": "[10]", "value": 967, "unit": "nM"}, {"measurement": "EC50", "setting": "[11]", "value": 465, "unit": "nM"}, {"measurement": "Ki", "setting": "[3]", "value": 1.96, "unit": "nM"}, {"measurement": "Ki", "setting": "[4]", "value": 34.4, "unit": "nM"}]}, {"molecule": "CC1(C)CCC2CCNCc3cccc1c32", "note": "(stereo not shown) [Compound 135, 7,7-dimethyl-1,2,3,4,4a,5,6,7-octahydronaphtho[1,8-cd]azepine]", "values": [{"measurement": "Ki", "setting": "[2]", "value": 395, "unit": "nM"}, {"measurement": "Ki", "setting": "[3]", "value": 69.6, "unit": "nM"}, {"measurement": "Ki", "setting": "[4]", "value": 458, "unit": "nM"}]}]}
